From patent US5750552A, “Imidazoline derivative, possible tautomer thereof, and vulnerary including such derivative or tautomer” (Arax Co., Ltd., priority 1995, dated 1998)

Columns and labels:
[1] = system: water-immersion restraint stress-induced gastric ulcer; assay: Inhibitory effect on water-immersion restraint stress-induced gastric ulcer; assay type: in vivo, SD rats; conditions: 10 mg/kg oral, 30 min before stress
Description: Inhibitory effect on water-immersion restraint stress-induced gastric ulcer
Male 7-week SD rats were fasted for 24 hours, with a fast of water beginning in early morning of the day when the experiments were performed. The rats were classified into groups each consisting of five rats, such that all the groups have substantially the same average weight. Thirty minutes before giving a stress to the rats, the compounds of the Examples indicated in TABLE 3 were orally administered as specimen drugs to the rats, with a dose of 10 mg/kg. The rats were then kept in stress cages, and were given a stress by immersing the cages in a water bath kept at a substantially constant temperature of 23°±1° C., such that the water level was at the height of the xiphoid of the rats. Seven hours later, the specimen rats were sacrificed by ether, and the gastric mucosa of each rat was semi-fixed with 2% formaline. The longitudinal length of the damaged area of the gastric mucosa was measured. A sum of the measured length values of the rats of each group was calculated as an ulcer index. An anti-ulcer or ulcer inhibitory percent (%) was calculated as {1-(ulcer index of each group of specimen rats)/(ulcer index of non-specimen group)}×100.

[2] = system: hydrochloric acid-ethanol-induced gastric ulcer; assay: Inhibitory effect on hydrochloric acid-ethanol-induced gastric ulcer; assay type: in vivo, SD rats; conditions: 30 mg/kg oral, 30 min before hydrochloric acid-ethanol
Description: Inhibitory effect on hydrochloric acid-ethanol-induced gastric ulcer
Male SD rats of 7-week age were fasted for 24 hours, with a fast of water beginning in early morning of the day when the experiments were performed. The rats were classified into groups each consisting of five rats, such that all the groups have substantially the same average weight. Before giving hydrochloric acid-ethanol to the rats, the compounds of the Examples indicated in TABLE 4 were orally administered as specimen drugs to the rats, with a dose of 30 mg/kg. Thirty minutes later, 1 mL of 98% ethanol containing 200 mM of hydrochloric acid was orally administered to each specimen rat. One hour later, the specimen rats were sacrificed by ether, and the gastric mucosa of each rat was semi-fixed with 2% formalin. The longitudinal length of the damaged area of the gastric mucosa was measured, and the anti-ulcer percent values of the individual specimen drugs were calculated on the basis of the sum of the measured length values of each group of the specimen rats, in the same manner as in Example 19.

[3] = system: indomethacin-induced gastric ulcer; assay: Inhibitory effect on indomethacin-induced gastric ulcer; assay type: in vivo, SD rats; conditions: 30 mg/kg oral, 30 min before indomethacin
Description: Inhibitory effect on indomethacin-induced gastric ulcer
Male SD rats of 7-week age were fasted for 24 hours, with a fast of water beginning in early morning of the day when the experiments were performed. The rats were classified into groups each consisting of eight rats, such that all the groups have substantially the same average weight. Before giving indomethacine to the rats, the compounds of the Examples indicated in TABLE 5 were orally administered as specimen drugs to the rats, with a dose of 30 mg/kg. Thirty minutes later, indomethacin was orally administered to each specimen rat, with a dose of 25 mg/kg (1 mL/rat). Seven hours later, the specimen rats were sacrificed by ether, and the gastric mucosa of each rat was semi-fixed with 2% formalin. The longitudinal length of the damaged area of gastric mucosa was measured, and the anti-ulcer percent values of the individual specimen drugs were calculated on the basis of the sum of the measured length values of each group of specimen rats, in the same manner as in EXAMPLE 19.

[4] = system: gastric acid secretion in a pylorus ligated rat; assay: Inhibitory effect on the gastric acid secretion in a pylorus ligated rat; assay type: in vivo, SD rats; conditions: 10 mg/kg intraduodenal; 4 hours
Description: Inhibitory effect on the gastric acid secretion in a pylorus ligated rat Male 7-week SD rats were fasted for 24 hours, with a fast of water beginning in early morning of the day when the experiments were performed. The rats were classified into groups each consisting of five rats, such that all the groups have substantially the same average weight. The experiments were performed according to a method of Shay et. al. (Shay, H. et. al., Gastroenterology, Vol. 5, pp43, 1945). Described more specifically, each of the rats was subjected to a light anesthesia by ether, and the hair of the abdomen of each rat was clipped. Then, the abdomen was incised over a length of 1.5 cm along the center line downwards from a portion 1 cm below the xiphoid of the rat, and the stomach was taken out of the body. A portion connecting the pylorus and the duodenum was ligated by suturing thread. […] After the administration, the skin of the abdominal muscle and abdomen was sutured. The rats were kept in cages and fasted for 4 hours with a fast of water. Then, the rats were sacrificed by ether, and the stomach of each rat was removed. The gastric content was obtained from a small hole formed through the stomach of each rat and was collected in a test tube. […] An amount of supernatant was measured as a volume of gastric acid, and a total acidity of the gastric acid was also measured. A volume of gastric acid inhibitory percent (%) and a total acidity inhibitory percent (%) were calculated in the same manner as the ulcer inhibitory percent was calculated. The total acidity was obtained as a product of the amount of gastric acid secreted for 4 hours and the acidity per 1 mL of the gastric acid which was subjected to neutralization titration by an aqueous solution of 0.01N sodium hydroxide.

[5] = system: acetic acid-induced gastric ulcer; assay: Healing effect on acetic acid-induced gastric ulcer of rat; assay type: in vivo, Donryu rat; conditions: 25 mg/kg oral two times a day, 10 days
Description: Healing effect on acetic acid-induced gastric ulcer of rat
A male Donryu rat of 7-week age was subjected to abdominal incision to expose the stomach, with pentobarbital used as an anesthesia. Using a metal ring having an inside diameter of 10 mm, 200 μL of glacial acetic acid was applied, for 60 seconds, with a serosa-side of a boundary area between the antrum and the corps. The abdomen of the specimen rat subjected to the glacial acetic acid was closed by an operation, and the rat was then fed in a normal way. The compound prepared in Example 2, that is, 2-(2-dimethylaminobenzylsulfinyl)-5,5-dimethylimidazoline-4-thione was used as the specimen drug. This compound was orally administered to the specimen rat two times a day (at 9:00 a.m. and 5:00 p.m.), each time with a dose of 25 mg/kg, beginning on the day following the day on which the glacial acetic acid was applied to the rat. The oral administration continued for 10 consecutive days, with a total of 20 administrations. On the day following the last day of the administration, the specimen rat was sacrificed by ether, and the ulcer portion of the rat was semi-fixed with formalin. The surface area of the ulcer portion was measured. The healing percent (%) calculated on the basis of the measured surface area was 40.8%.

wound in rat = assay: Healing effect on wound in rat; assay type: in vivo, SD rats; conditions: TABLE 7, 15 days; for Healing days: control 15.1 ± 0.22; for Healing Index: control 188.3 ± 18.2
Description: Healing Effect on wound in rat
Male 7-week SD rats were classified into groups each consisting of 6-7 rats, such that all the groups have substantially the same average weight. The experiment was performed on the rats according to a method of Tsurumi et al. (Oyo Yakuri, Vol. 7, pp833, 1973). Initially, the rats were subjected to an anesthesia with pentobarbital. The hair of the back of each rat was clipped, and the skin was disinfected with 70% ethanol. Then, the skin was lightly pulled and punched off in a direction from the right to the left by means of a punch whose diameter is 10 mm, so as to form two open wounds on portions of the back of the rat which are symmetrical to each other with respect to the center line of the back. The compounds of Examples indicated in the following TABLES 7 and 8 were used as specimen drugs, and orally administered once a day to each of the rats with doses indicated in the TABLES 7 and 8. The oral administration continued for 15 consecutive days, beginning from the first day when the wounds were formed on the back of each rat.
To clarify the healing effect on the wounds, an Healing Index and healing days were obtained in the following manner. Initially, the lengths of a major axis and a minor axis of each wound formed on the back were measured using calipers. On the basis of the measured length values, the area of each wound was calculated as the area of an ellipse. The Healing Index was obtained according to a method of Nakano et al. (Oyo Yakuri, Vol. 47, pp29, 1994). Described more specifically, a ratio of area of each wound was chronologically represented in a graph, and an area of the lower part of a curve in the graph during a period from the fifth day to the fifteenth day after the wounds were formed was obtained as the Healing Index. […] The healing days were obtained as the number of the days that were required for the wounds to be completely covered with regenerated epidermises. As for the wound that was healed in more than 15 days, the healing days were obtained as 16 days.

[6] = Single-dose toxicity study; assay type: in vivo; conditions: mouse, in vivo, oral, male ddY mice, two weeks
ddY mice = assay: Single-dose toxicity study; assay type: in vivo; conditions: oral, male ddY mice, two weeks

Compound	Inhibitory Percent (ulcer) [1]	Inhibitory Percent (ulcer) [2]	Inhibitory Percent (ulcer) [3]	Total acidity Inhibitory percent [4]	Volume of Gastric acid Inhibitory percent [4]	healing percent (ulcer surface area) [5]	Healing days (wound in rat; 50 mg/kg oral once a day)	Healing Index (wound in rat; 50 mg/kg oral once a day)	Healing days (wound in rat; 100 mg/kg oral once a day)	Healing Index (wound in rat; 100 mg/kg oral once a day)	LD50 at 336 h [6]	LD50 95% confidence limits (ddY mice)
CCN(C)c1ccccc1C[S+]([O-])C1=NC(C)(C)C(=S)N1 (stereo not drawn) [Example 15, 2-(2-N-ethyl-N-methylaminobenzylsulfinyl)-5,5-dimethylimidazolin-4-thione]	99.9%	97.4%	99.2%	91.3%	60.1%	–	–	–	–	–	–	–
CCC1(C)N=C([S+]([O-])Cc2ccccc2N(C)C)NC1=S (stereo not drawn) [Example 16, 2-(2-dimethylaminobenzylsulfinyl)-5-ethyl-5-methylimidazolin-4-thione]	–	98.6%	97.2%	77.4%	41.6%	–	–	–	–	–	–	–
CC1(C)N=C([S+]([O-])Cc2cccc3cccnc23)NC1=S (stereo not drawn) [Example 4, 2-(8-quinolinylmethylsulfinyl)-5,5-dimethylimidazolin-4-thione]	–	90.3%	–	–	–	–	–	–	–	–	–	–
CN(C)c1ccccc1C[S+]([O-])C1=NC(C)(C)C(=S)N1 (stereo not drawn) [Example 2, 2-(2-dimethylaminobenzylsulfinyl)-5,5-dimethylimidazolin-4-thione]	–	–	100%	–	–	40.8%	13.8 ± 0.39 days	153.0 ± 13.2	14.6 ± 0.44 days	146.7 ± 12.4	952 mg/kg	791 to 1138 mg/kg
